For the assay, the target named is T1, CCR4 (Homo sapiens, UniProt P51679).
T1 construct: expressed in transfected cells; host or cells: CHO-K1
T1 sequence (P51679 1-360): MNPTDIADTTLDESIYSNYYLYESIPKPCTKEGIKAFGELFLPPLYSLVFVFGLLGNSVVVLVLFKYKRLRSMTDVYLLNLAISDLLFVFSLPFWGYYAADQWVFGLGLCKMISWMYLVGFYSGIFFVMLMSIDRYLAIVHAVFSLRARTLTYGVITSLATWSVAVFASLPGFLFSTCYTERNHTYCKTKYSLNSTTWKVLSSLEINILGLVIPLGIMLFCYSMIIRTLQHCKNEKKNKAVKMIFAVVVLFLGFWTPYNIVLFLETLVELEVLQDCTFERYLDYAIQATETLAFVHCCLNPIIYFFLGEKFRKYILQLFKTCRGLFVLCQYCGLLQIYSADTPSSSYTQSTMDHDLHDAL
The assay is described as follows: β-Arrestin recruitment assay (CHO-K1 CCR4 β-Arrestin cells stimulated with recombinant human CCL22). The assay is classed as cell-based. The conditions noted are these: CCL22 10 nM stimulation; for IC50: read-out: CCR4 antagonistic activity IC50 (μM) in range; for inhibition: read-out: % inhibition at 5 μM/30 μM (% E-Max). How it is done:
CHO-K1 CCR4 β-Arrestin cells were seeded and incubated overnight at 37° C. in a CO2 incubator for adherence. Next day, cells were pretreated with various concentrations of CCR4 modulators for 30 mins at 37° C. The cells were stimulated with recombinant human CCL22 (10 nM) and further incubated for 90 mins. Working detection solution was added and incubated at room temperature for 1 hour after which the chemiluminescent signal was read using a luminometer.
Exemplary compounds of the present application were screened by the above-mentioned assay and the results were tabulated.

The mark [1] stands for this setting: CHO-K1, read-out: % inhibition 30 μM (% E-Max).

SMILES strings stand for the structures. Read-outs that look alike come from different tables or passages of the source. Where only a bound is given, the exact number is not on record here.

As usually defined, the IC50 is the point on the concentration scale where inhibition reaches its midpoint. `C[C@H](Nc1c(F)cnc2nc(N3CC([C@H]4CCCN([C@H]5C[C@](C)(C(=O)O)C5)C4)C3)sc12)c1ncc(F)cc1F` (single isomer, unassigned) [Compound 46]: the IC50 lay within 0.25 to 0.5 µM. The inhibition under setting [1] worked out at 99%.

For `C[C@@H](Nc1c(F)ccc2nc(N3CC(C4CN([C@H]5C[C@](C)(C(=O)O)C5)CCO4)C3)sc12)c1ccc(Cl)cc1Cl` (single isomer, unassigned) [Compound 28], the “% inhibition at 5 μM/30 μM (% E-Max)” value was found to be 72% at 5 μM. With `CC(Nc1c(F)ccc2nc(N3CC([C@H]4CCCN([C@H]5C[C@](C)(C(=O)O)C5)C4)C3)sc12)c1ncc(F)cc1F` (some centres unmarked) [Compound 38], the IC50 lay within 0.25 to 0.5 µM. Further, the inhibition under setting [1] was 81%.

With `C[C@@H](Nc1c(OC(F)(F)F)ccc2nc(N3CC([C@H]4CCCN([C@H]5C[C@](C)(C(=O)O)C5)C4)C3)oc12)c1ccc(Cl)cc1Cl` [Compound 12], the half-maximal inhibitory concentration (IC50) is 0.25 to 0.5 µM. Moreover, under setting [1], the inhibition was determined as 99.3%.

Consider `C[C@@H](Nc1c(F)ccc2nc(N3CC([C@H]4CCCN([C@H]5C[C@](C)(C(=O)O)C5)C4)C3)sc12)c1ncc(Cl)cc1Cl` [Compound 36, (1R,3r)-3-((R)-3-(1-(7-(((R)-1-(3,5-dichloropyridin-2-yl)ethyl)amino)-6-fluorobenzo[d]thiazol-2-yl)azetidin-3-yl)piperidin-1-yl)-1-methylcyclobutane-1-carboxylic acid], for which the IC50 was less than 0.25 µM and the “% inhibition at 5 μM/30 μM (% E-Max)” value amounted to 103% at 5 μM. For `C[C@@H](Nc1c(F)cnc2nc(N3CC([C@H]4CCCN([C@H]5C[C@](C)(C(=O)O)C5)C4)C3)sc12)c1ncc(Cl)cc1Cl` (single isomer, unassigned) [Compound 42], the IC50 lay in the range of 0.25 to 0.5 µM. The inhibition under setting [1] was found to be 103%. As to `C[C@@H](Nc1c(C#N)ccc2nc(N3CC([C@H]4CCCN([C@H]5C[C@](C)(C(=O)O)C5)C4)C3)oc12)c1ccc(Cl)cc1Cl` [Compound 21], the IC50 was less than 0.25 µM. Also, under setting [1], the inhibition worked out at 103%. The corresponding values for `C[C@@H](Nc1c(OC(F)F)ccc2nc(N3CC([C@H]4CCCN([C@H]5C[C@](C)(C(=O)O)C5)C4)C3)oc12)c1ccc(Cl)cc1Cl` [Compound 11] are less than 0.25 µM and 101%.

Turning to `C[C@@H](Nc1cccc2nc(N3CC([C@H]4CCCN([C@H]5C[C@](C)(C(=O)O)C5)C4)C3)oc12)c1ccc(Cl)cc1Cl` [Compound 2, (1R,3r)-3-((R)-3-(1-(7-(((R)-1-(2,4-dichlorophenyl)ethyl)amino)benzo[d]oxazol-2-yl)azetidin-3-yl)piperidin-1-yl)-1-methylcyclobutane-1-carboxylic acid], the IC50 was less than 0.25 µM. Further, the inhibition (CHO-K1, at 30 μM) is 99.5%. In the same order, the values of `C[C@@H](Nc1c(OC(F)F)ccc2nc(N3CC([C@H]4CCCN([C@H]5C[C@](C)(C(=O)O)C5)C4)C3)sc12)c1ncc(F)cc1F` (single isomer, unassigned) [Compound 51] are greater than 0.5 µM and 77%. As to `C[C@@H](Nc1c(F)ccc2nc(N3CC(C4CN([C@H]5C[C@](C)(C(=O)O)C5)CCO4)C3)sc12)c1ccc(Cl)cc1Cl` (single isomer, unassigned) [Compound 27], the IC50 was 0.25 to 0.5 µM and the “% inhibition at 5 μM/30 μM (% E-Max)” value amounted to 99% at 5 μM. Turning to `C[C@@H](Nc1c(F)ccc2nc(N3CC([C@H]4CCCN([C@H]5C[C@](C)(C(=O)O)C5)C4)C3)oc12)c1ccc(Cl)cc1Cl` [Compound 6], the IC50 is less than 0.25 µM. Besides, the inhibition (CHO-K1, at 30 μM) turned out to be 104%. With `C[C@@H](Nc1c(F)ncc2nc(N3CC([C@H]4CCCN([C@H]5C[C@](C)(C(=O)O)C5)C4)C3)sc12)c1ccc(Cl)cc1Cl` [Compound 30], the IC50 is less than 0.25 µM. Moreover, the inhibition under setting [1] amounted to 103%. Take `C[C@@H](Nc1cccc2c1nc(N1CC([C@H]3CCCN([C@H]4C[C@](C)(C(=O)O)C4)C3)C1)n2C)c1ccc(Cl)cc1Cl` [Compound 4]: the inhibition (CHO-K1, at 30 μM) came out at 71%. With `CC(Nc1c(F)ccc2nc(N3CC([C@H]4CCCN([C@H]5C[C@](C)(C(=O)O)C5)C4)C3)sc12)c1ncc(Cl)cc1Cl` (mixture of isomers) [Compound 35, (1R,3r)-3-((3R)-3-(1-(7-((1-(3,5-dichloropyridin-2-yl)ethyl)amino)-6-fluorobenzo[d]thiazol-2-yl)azetidin-3-yl)piperidin-1-yl)-1-methylcyclobutane-1-carboxylic acid], the IC50 was less than 0.25 µM. Besides, under setting [1], the inhibition was 102%.

`C[C@@H](Nc1c(F)ccc2nc(N3CC([C@H]4CCCN([C@H]5C[C@](C)(C(=O)O)C5)C4)C3)sc12)c1ncc(F)cc1F` [Compound 39]: the inhibition under setting [1] came to 39%. For `C[C@@H](Nc1c(Cl)cnc2nc(N3CC([C@H]4CCCN([C@H]5C[C@](C)(C(=O)O)C5)C4)C3)oc12)c1ccc(Cl)cc1Cl` [Compound 17], the half-inhibitory concentration (IC50) lay in the range of 0.25 to 0.5 µM. Further, the inhibition under setting [1] is 102%. In the same order, the values of `C[C@H](Nc1c(OC(F)F)ccc2nc(N3CC([C@H]4CCCN([C@H]5C[C@](C)(C(=O)O)C5)C4)C3)sc12)c1ncc(Cl)cc1Cl` (single isomer, unassigned) [Compound 49] are 0.25 to 0.5 µM and 99%. The corresponding values for `C[C@@H](Nc1c(F)ccc2nc(N3CC(C4CN([C@H]5C[C@](C)(C(=O)O)C5)CCO4)C3)sc12)c1ccc(Cl)cc1Cl` (some centres unmarked) [Compound 26] are less than 0.25 µM and 103%.

As to `Cc1ccc2nc(N3CC([C@H]4CCCN([C@H]5C[C@](C)(C(=O)O)C5)C4)C3)oc2c1N[C@H](C)c1ccc(Cl)cc1Cl` [Compound 18], the concentration for half-maximal inhibition (IC50) is less than 0.25 µM. Besides, the inhibition under setting [1] was 103%. `Cc1cc(N[C@H](C)c2ccc(Cl)cc2Cl)c2oc(N3CC([C@H]4CCCN([C@H]5C[C@](C)(C(=O)O)C5)C4)C3)nc2c1` [Compound 5]: the 50% inhibitory concentration (IC50) lay within 0.25 to 0.5 µM. Further, the inhibition (CHO-K1, at 30 μM) came out at 102%. On to `CC(Nc1c(F)cnc2nc(N3CC([C@H]4CCCN([C@H]5C[C@](C)(C(=O)O)C5)C4)C3)sc12)c1ncc(Cl)cc1Cl` (some centres unmarked) [Compound 41], for which the IC50 fell in the range of 0.25 to 0.5 µM. Under setting [1], the inhibition is 101%. Regarding `COc1ccc2nc(N3CC([C@H]4CCCN([C@H]5C[C@](C)(C(=O)O)C5)C4)C3)oc2c1N[C@H](C)c1ccc(Cl)cc1Cl` [Compound 10], the IC50 lay in the range of 0.25 to 0.5 µM. For the same compound, the inhibition under setting [1] worked out at 93%. Take `C[C@@H](Nc1c(C(F)(F)F)ccc2nc(N3CC([C@H]4CCCN([C@H]5C[C@](C)(C(=O)O)C5)C4)C3)oc12)c1ccc(Cl)cc1Cl` [Compound 13]: the IC50 was less than 0.25 µM. Further, the inhibition under setting [1] turned out to be 101%. Take `C[C@H](Nc1c(OC(F)F)ccc2nc(N3CC([C@H]4CCCN([C@H]5C[C@](C)(C(=O)O)C5)C4)C3)sc12)c1ncc(F)cc1F` [Compound 52]: the half-maximal inhibitory concentration (IC50) is greater than 0.5 µM. Moreover, for the setting “CHO-K1, at 30 μM”, the inhibition was found to be 99%. Consider `C[C@@H](Nc1cccc2nc(N3CC([C@H]4CCCN([C@H]5C[C@](C)(C(=O)O)C5)C4)C3)n(C)c12)c1ccc(Cl)cc1Cl` [Compound 22], for which, where the note is “CHO-K1, at 30 μM”, the inhibition turned out to be 29.5%.

Take `C[C@@H](Nc1cc(Cl)cc2nc(N3CC([C@H]4CCCN([C@H]5C[C@](C)(C(=O)O)C5)C4)C3)oc12)c1ccc(Cl)cc1Cl` [Compound 7]: the 50% inhibitory concentration (IC50) was in the range of 0.25 to 0.5 µM. In addition, the inhibition (CHO-K1, at 30 μM) came out at 101%. As for `C[C@@H](Nc1ncnc2nc(N3CC([C@H]4CCCN([C@H]5C[C@](C)(C(=O)O)C5)C4)C3)sc12)c1ccc(Cl)cc1Cl` [Compound 32, (1R,3r)-3-((R)-3-(1-(7-(((R)-1-(2,4-Dichlorophenyl)ethyl)amino)thiazolo[4,5-d]pyrimidin-2-yl)azetidin-3-yl)piperidin-1-yl)-1-methylcyclobutane-1-carboxylic acid], the IC50 was less than 0.25 µM. Further, the inhibition under setting [1] worked out at 104%. Turning to `C[C@@H](Nc1ncnc2nc(N3CC([C@H]4CCCN([C@H]5C[C@](C)(C(=O)O)C5)C4)C3)sc12)c1ncc(Cl)cc1Cl` [Compound 53], the IC50 was 0.25 to 0.5 µM. For the same compound, under setting [1], the inhibition was 94%. Consider `C[C@@H](Nc1c(Cl)ccc2nc(N3CC([C@H]4CCCN([C@H]5C[C@](C)(C(=O)O)C5)C4)C3)oc12)c1ccc(Cl)cc1Cl` [Compound 1, (1R,3r)-3-((R)-3-(1-(6-Chloro-7-(((R)-1-(2,4-dichlorophenyl)ethyl)amino)benzo[d]oxazol-2-yl)azetidin-3-yl)piperidin-1-yl)-1-methylcyclobutane-1-carboxylic acid], for which the IC50 was less than 0.25 µM. Moreover, the inhibition (CHO-K1, at 30 μM) is 103%.

Turning to `C[C@@H](Nc1c(Cl)ccc2nc(N3CC([C@H]4CCCN([C@H]5C[C@](C)(C(=O)O)C5)C4)C3)sc12)c1ccc(Cl)cc1Cl` [Compound 23], the 50% inhibitory concentration (IC50) was less than 0.25 µM. Moreover, the inhibition under setting [1] amounted to 104%.

As for `C[C@@H](Nc1c(F)cnc2nc(N3CC([C@H]4CCCN([C@H]5C[C@](C)(C(=O)O)C5)C4)C3)sc12)c1ncc(F)cc1F` (single isomer, unassigned) [Compound 45], the concentration for half-maximal inhibition (IC50) was greater than 0.5 µM. Moreover, under setting [1], the inhibition turned out to be 89%. In the same order, the values of `C[C@@H](Nc1c(C(N)=O)ccc2nc(N3CC([C@H]4CCCN([C@H]5C[C@](C)(C(=O)O)C5)C4)C3)oc12)c1ccc(Cl)cc1Cl` [Compound 19] are 0.25 to 0.5 µM and 93.8%.

The values are drawn from patent US20260284028A1, “FUSED BICYCLIC HETEROCYCLYL COMPOUNDS AS CCR4 MODULATORS” (AURIGENE ONCOLOGY LIMITED, priority 2023, published 2026).
